US7999011B2, “Method for cardioprotection and neuroprotection by intravenous administration of halogenated volatile anesthetics” (Baxter International Inc., priority 2002, dated 2011)

How the values were obtained:
[1] = Arterial blood gas analysis; assay type: in vivo, rabbit; conditions: for pH: arterial blood
Procedure: Male New Zealand white rabbits weighing between 2.5 and 3.0 kg were anesthetized with intravenous sodium pentobarbital (30 mg/kg). Additional doses of pentobarbital were titrated as required to assure that pedal and palpebral reflexes were absent throughout the experiment. A tracheotomy was performed through a ventral midline incision, and the trachea was cannulated. The rabbits were ventilated with positive pressure using an air-oxygen mixture (FiO2=0.33). […] Body temperature was maintained with a heating blanket. Heparin-filled catheters were inserted into the right carotid artery and the left jugular vein for measurement of arterial blood pressure and fluid or drug administration, respectively. Maintenance fluids consisted of 0.9% saline (15 ml/kg/h) that were continued for the duration of the experiment.
(§1) Baseline measurements of systemic hemodynamics, arterial blood gas tensions, and blood concentrations of anesthetic agent were performed 30 min after instrumentation was completed. Rabbits received 0.9% saline, drug lipid vehicle (10 ml/h), or intravenous volatile anesthetic (10 ml/h) for 30 min. Infusions were discontinued 30 min prior to coronary occlusion (memory period). Blood concentrations of anesthetic agents were performed at baseline, at the end of anesthetic infusion, and at the end of the memory period just before coronary occlusion). HVA concentrations in blood were determined by gas chromatographic (GC) analysis. All rabbits underwent a 30 min LAD occlusion followed by 3 h reperfusion.
(§2) Statistical analysis of data within and between groups was performed with analysis of variance (ANOVA) for repeated measures followed by Student-Newman-Keuls test. Changes between groups were considered statistically significant when the p value was less than 0.05. All data are expressed as mean±SEM.

[2] = End-tidal gas analysis; assay type: in vivo, rabbit; conditions: for EtHalogenated: end-tidal
Procedure: as §1, §2

[3] = Blood concentration of anesthetics by GC and conversion to MAC-equivalents; assay type: in vivo, rabbit
Procedure: as §1
Blood concentrations as measured by GC were converted to their MAC-equivalent values by calculations described below. Initially “n”, or the number of moles of HVA in 1 L of alveolar gas during exposure to 1.0 MAC of the HVA was calculated. The ideal gas law n=PV/RT is used to calculate the number of moles of HVA present at 1 MAC in the alveolar gas where: V=1 L, T=273+37=310° (K); and R=0.0821 (universal gas constant). P or pressure was determined taking into account the vapor pressure of water at 37° C. which is 47.1 torr, and the volume percent of the HVA. Volume percentages of HVAs (MAC values) were obtained from literature values determined in rabbits (Scheller et al. Can. J. Anaesth. 1988, 35: 133-136; Drummond, J C Anesthesiology 1985; 62: 336-8, and Doorley et al. Anesthesiology 1988; 69, 89-91), and are presented in Table 8.
The number of moles of the HVA in 1 L at 37° C. at 1 MAC in rabbits was then used to determine the concentration of the HVA present in blood by using known blood/gas partition values (also known as λ). Blood gas partition values for the HVAs used in the study are show in Table 8. The value for “x” (or the equivalent blood concentration of the HVA at 1 MAC at 37° C. in rabbit) is then determined by the equation: x=λn
To express a measured blood concentration of an HVA as a MAC-equivalent value, the measured blood concentration is divided by x. The MAC equivalent values shown in Table 8 were calculated according to the above from the blood concentrations observed (see Table 7).

[4] = Literature MAC values in rabbits and 1 MAC-equivalent blood concentration; assay type: in vivo; conditions: 37° C., rabbit; x=λn
Procedure: “Minimum alveolar concentration (MAC)”, as is known in the art, is the alveolar concentration of an anesthetic, administered by inhalation at a pressure of 1 atmosphere, that prevents movement in 50% of patients in response to a painful stimuli. The MAC is age-dependent; it may be affected by a patient's medical condition; and it may also be affected by other pharmaceutical agents that are administered to the patient. In the context of intravenous administration of HVAs, the term “MAC” or “MAC-equivalent” is intended to mean an intravenous dose which produces the same blood plasma concentration of an anesthetic agent as that attained by inhalational administration of a gaseous concentration of anesthetic which prevents such movement in 50% of patients.
Blood concentrations as measured by GC were converted to their MAC-equivalent values by calculations described below. Initially “n”, or the number of moles of HVA in 1 L of alveolar gas during exposure to 1.0 MAC of the HVA was calculated.
The number of moles of the HVA in 1 L at 37° C. at 1 MAC in rabbits was then used to determine the concentration of the HVA present in blood by using known blood/gas partition values (also known as λ). […] The value for “x” (or the equivalent blood concentration of the HVA at 1 MAC at 37° C. in rabbit) is then determined by the equation: x=λn

[5] = literature values determined in rabbits; cited from earlier work
[6] = Infusion (end of 30 min, 10 ml/h i.v. infusion)
[7] = Memory (30 min after infusion, just before coronary occlusion)
[8] = measured blood concentration divided by x

FC(F)OC(Cl)C(F)(F)F (stereo not drawn) [ISO, isoflurane]
PaCO2 ([1]; Baseline): 34 ± 2 mmHg
PaO2 ([1]; Baseline): 136 ± 17 mmHg
PaCO2 ([1]; Infusion): 34 ± 2 mmHg
PaO2 ([1]; Infusion): 124 ± 11 mmHg
PaCO2 ([1]; Ischemia 30 min): 33 ± 2 mmHg
PaO2 ([1]; Ischemia 30 min): 166 ± 24 mmHg
PaCO2 ([1]; Memory): 36 ± 2 mmHg
PaO2 ([1]; Memory): 146 ± 15 mmHg
PaCO2 ([1]; Reperfusion 1 h): 31 ± 2 mmHg
PaO2 ([1]; Reperfusion 1 h): 167 ± 12 mmHg
PaCO2 ([1]; Reperfusion 2 h): 32 ± 2 mmHg
PaO2 ([1]; Reperfusion 2 h): 169 ± 12 mmHg
PaCO2 ([1]; Reperfusion 3 h): 33 ± 2 mmHg
PaO2 ([1]; Reperfusion 3 h): 160 ± 13 mmHg
pH ([1]; Baseline): 7.43 ± 0.02
pH ([1]; Infusion): 7.40 ± 0.03
pH ([1]; Ischemia 30 min): 7.36 ± 0.02
pH ([1]; Memory): 7.36 ± 0.02
pH ([1]; Reperfusion 1 h): 7.39 ± 0.02
pH ([1]; Reperfusion 2 h): 7.39 ± 0.02
pH ([1]; Reperfusion 3 h): 7.39 ± 0.01
EtCO2 ([2]; Baseline): 34 ± 1 mmHg
EtCO2 ([2]; Infusion): 34 ± 1 mmHg
EtCO2 ([2]; Ischemia 30 min): 30 ± 2 mmHg
EtCO2 ([2]; Memory): 33 ± 2 mmHg
EtCO2 ([2]; Reperfusion 1 h): 27 ± 2 mmHg
EtCO2 ([2]; Reperfusion 2 h): 28 ± 2 mmHg
EtCO2 ([2]; Reperfusion 3 h): 30 ± 2 mmHg
EtHalogenated ([2]; Baseline): 0%
EtHalogenated ([2]; Infusion): 0.31 ± 0.02%
EtHalogenated ([2]; Ischemia 30 min): 0.00 ± 0.00%
EtHalogenated ([2]; Memory): 0.02 ± 0.01%
EtHalogenated ([2]; Reperfusion 1 h): 0.00 ± 0.00%
EtHalogenated ([2]; Reperfusion 2 h): 0.00 ± 0.00%
EtHalogenated ([2]; Reperfusion 3 h): 0.00 ± 0.00%
Blood Concentration ([3]; Baseline): 0 µM
Blood Concentration [3, 6]: 180 ± 60 µM
Blood Concentration [3, 7]: 40 ± 20 µM
Observed Blood Concentration following 30 min, 10 mL/h Infusion ([3]; i.v. emulsion): 0.18 mM
Observed Blood Concentration following 30 min, 10 mL/h Infusion [3, 8]: 0.17 MAC-Equivalents
1 MAC-Equivalent Blood Concentration at 1 MAC ("x") [4]: 1.06 mM
Average MAC [5]: 2.05 % v/v

FCOC(C(F)(F)F)C(F)(F)F [SEVO, sevoflurane]
PaCO2 ([1]; Baseline): 37 ± 1 mmHg
PaO2 ([1]; Baseline): 125 ± 8^ mmHg
PaCO2 ([1]; Infusion): 38 ± 1 mmHg
PaO2 ([1]; Infusion): 118 ± 6 mmHg
PaCO2 ([1]; Ischemia 30 min): 40 ± 1 mmHg
PaO2 ([1]; Ischemia 30 min): 106 ± 12 mmHg
PaCO2 ([1]; Memory): 41 ± 1 mmHg
PaO2 ([1]; Memory): 107 ± 11 mmHg
PaCO2 ([1]; Reperfusion 1 h): 38 ± 1 mmHg
PaO2 ([1]; Reperfusion 1 h): 120 ± 7 mmHg
PaCO2 ([1]; Reperfusion 2 h): 38 ± 1 mmHg
PaO2 ([1]; Reperfusion 2 h): 127 ± 6^ mmHg
PaCO2 ([1]; Reperfusion 3 h): 39 ± 1 mmHg
PaO2 ([1]; Reperfusion 3 h): 121 ± 8 mmHg
pH ([1]; Baseline): 7.44 ± 0.01
pH ([1]; Infusion): 7.42 ± 0.01
pH ([1]; Ischemia 30 min): 7.38 ± 0.01
pH ([1]; Memory): 7.39 ± 0.01
pH ([1]; Reperfusion 1 h): 7.39 ± 0.01
pH ([1]; Reperfusion 2 h): 7.40 ± 0.01
pH ([1]; Reperfusion 3 h): 7.39 ± 0.01
EtCO2 ([2]; Baseline): 35 ± 1 mmHg
EtCO2 ([2]; Infusion): 36 ± 1 mmHg
EtCO2 ([2]; Ischemia 30 min): 35 ± 1 mmHg
EtCO2 ([2]; Memory): 36 ± 1 mmHg
EtCO2 ([2]; Reperfusion 1 h): 34 ± 1 mmHg
EtCO2 ([2]; Reperfusion 2 h): 33 ± 1 mmHg
EtCO2 ([2]; Reperfusion 3 h): 34 ± 1 mmHg
EtHalogenated ([2]; Baseline): 0%
EtHalogenated ([2]; Infusion): 0.34 ± 0.02%
EtHalogenated ([2]; Ischemia 30 min): 0.04 ± 0.01%
EtHalogenated ([2]; Memory): 0.07 ± 0.01%
EtHalogenated ([2]; Reperfusion 1 h): 0.03 ± 0.01%
EtHalogenated ([2]; Reperfusion 2 h): 0.04 ± 0.01%
EtHalogenated ([2]; Reperfusion 3 h): 0.05 ± 0.01%
Blood Concentration ([3]; Baseline): 0 µM
Blood Concentration [3, 6]: 150 ± 10 µM
Blood Concentration [3, 7]: 20 ± 0 µM
Observed Blood Concentration following 30 min, 10 mL/h Infusion ([3]; i.v. emulsion): 0.15 mM
Observed Blood Concentration following 30 min, 10 mL/h Infusion [3, 8]: 0.16 MAC-Equivalents
1 MAC-Equivalent Blood Concentration at 1 MAC ("x") [4]: 0.94 mM
Average MAC [5]: 3.7 % v/v
